In patent publication US11787810B2, “Diacylglyceride O-acyltransferase 2 inhibitors” (Merck Sharp & Dohme Corp., priority 2020, dated 2023):

These compounds were tested against human DGAT2 (hDGAT2) (Homo sapiens (Human), UniProt Q96PD7) (assay: DGAT2 enzymatic activity assay (13C18-triolein formation, LC/MS/MS)). Conditions: hDGAT2 Sf-9 membrane prep, 25 μM diolein, 5 μM 13C oleoyl-CoA; read-out: Human DGAT2 IC50.
Format: biochemical
Description: Sf-9 insect cells were maintained in Grace's insect cell culture medium with 10% heated-inactivated fetal bovine serum, 1% Pluronic F-68 and 0.14 μg/ml Kanamycine sulfate at 27° C. in a shaker incubator. After infection with untagged baculovirus expressing human DGAT2 (hDGAT2) at multiplicity of infection (MOI) 3 for 48 hours, cells were harvested. Cell pellets were suspended in buffer containing 10 mM Tris-HCl pH 7.5, 1 mM EDTA, 250 mM sucrose and Complete Protease Inhibitor Cocktail (Sigma Aldrich), and sonicated on ice. Cell debris were removed by centrifugation at 2000×g for 15 minutes. Membrane fractions were isolated by ultracentrifugation (100,000×g), resuspended in the same buffer, and frozen (−80° C.) for later use. The protein concentration was determined with the Pierce™ BCA Protein Assay Kit (Thermo Fisher Scientific). Expression of protein levels was analyzed by immunoblotting with rabbit anti-DGAT2 antibody (Abcam, ab102831) and donkey anti-rabbit IgG H&L Alexa Fluor® 647 (Abcam, ab150075) followed by detection using Typhoon FLA9000 (GE Healthcare).
LC/MS/MS analyses were performed using Thermal Fisher's LX4-TSQ Vantage system. This system consists of an Agilent binary high-performance liquid chromatography (HPLC) pumps and a TSQ Vantage triple quadrupole MS/MS instrument. For each sample, 2 μL samples from the top organic layer of in-plate liquid-liquid extraction were injected onto a Thermo Betabasic C4 column (2.1 mm×20 mm, 5 μm particle size). The samples were then eluted using the following conditions; mobile phase: Isopropanol:acetonitrile/10 mM ammonium formate=50/35/15 (v/v/v), flow rate: 0.8 mL/min, temperature: 25° C. Data was acquired in positive mode using a heated electrospray ionization (HESI) interface. The operational parameters for the TSQ Vantage MS/MS instrument were a spray voltage of 3000 V, capillary temperature of 280° C., vaporizer temperature 400° C., sheath gas 45 arbitrary unit, Aux gas 10 arbitrary units, S-lens 165 and collision gas 1.0 mTorr. […] (SRM) chromatograms of ^13C18-triolein (Q1: 920.8>Q3:621.3) and internal standard ^13C21-triolein (Q1: 923.8>Q3:617.3) were collected for 33 sec. The peak area was integrated by Xcalibur Quan software. The ratio between the ^13C18triolein generated in the reaction and spiked in internal standard ^13C21-triolein was used to generate percentage inhibition and IC50 values. Compound percentage inhibition was calculated by the following formula: Inhibition %=1-[(compound response−low control)/(high control−low control)]×100%. Potent compounds were titrated and IC50 were calculated by 4 parameter sigmoidal curve fitting formula.
DGAT2 activity was determined by measuring the amount of enzymatic product ^13C18-triolein (^13C-1,2,3-Tri(cis-9-octadecenoyl)glycerol) using the membrane prep mentioned above. The assay was carried out in ABgene 384-well assay plates in a final volume of 25 μL at rt. The assay mixture contained the following: assay buffer (100 mM Tris·Cl, pH 7.0, 20 mM MgCl2, 5% ethanol), 25 μM of diolein, 5 μM of ^13C oleoyl-CoA and 8 ng/μL of DGAT2 membrane.

human DGAT2 (hDGAT2), sequence (Q96PD7 whole entry): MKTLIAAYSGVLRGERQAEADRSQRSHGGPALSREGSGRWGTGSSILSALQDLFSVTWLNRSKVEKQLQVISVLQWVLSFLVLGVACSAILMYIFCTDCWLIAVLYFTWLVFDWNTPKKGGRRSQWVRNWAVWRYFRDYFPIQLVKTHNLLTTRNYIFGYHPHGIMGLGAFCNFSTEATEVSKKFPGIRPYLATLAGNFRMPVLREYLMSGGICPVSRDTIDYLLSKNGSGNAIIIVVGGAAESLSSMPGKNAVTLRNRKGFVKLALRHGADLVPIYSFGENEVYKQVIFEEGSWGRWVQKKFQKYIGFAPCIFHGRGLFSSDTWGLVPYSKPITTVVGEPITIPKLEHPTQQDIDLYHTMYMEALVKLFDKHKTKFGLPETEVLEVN

IC50 [nM] | Structure (SMILES)
41 | CC(C)n1nc(-c2cccc(OC(F)F)c2)c2ncc(C(=O)NC(CO)C(F)(F)F)cc21 (racemic) [Example 52, 3-(3-(difluoromethoxy)phenyl)-1-isopropyl-N-(1,1,1-trifluoro-3-hydroxypropan-2-yl)-1H-pyrazolo[4,3-b]pyridine-6-carboxamide]
19 | CC(C)n1nc(-c2cccc(OC(F)F)c2)c2ncc(C(=O)NC3(CO)CCOC3)cc21 (single isomer, unassigned) [Example 39a, 3-[3-(difluoromethoxy)phenyl]-N-[3-(hydroxymethyl)tetrahydrofuran-3-yl]-1-isopropyl-pyrazolo[4,3-b]pyridine-6-carboxamide]
38 | CC(C)n1nc(-c2cccc(OC(F)F)c2)c2ncc(C(=O)NC3(CO)CCOC3)cc21 (single isomer, unassigned) [Example 39b, 3-[3-(difluoromethoxy)phenyl]-N-[3-(hydroxymethyl)tetrahydrofuran-3-yl]-1-isopropyl-pyrazolo[4,3-b]pyridine-6-carboxamide]
520 | CC(O)C(C)NC(=O)c1cnc2c(-c3cccc(OC(F)F)c3)nn(C(C)C)c2c1 (single isomer, unassigned) [Example 45b, 3-(3-(difluoromethoxy)phenyl)-N-(3-hydroxybutan-2-yl)-1-isopropyl-1H-pyrazolo[4,3-b]pyridine-6-carboxamide]
498 | CC(O)C(C)NC(=O)c1cnc2c(-c3cccc(OC(F)F)c3)nn(C(C)C)c2c1 (single isomer, unassigned) [Example 45c, 3-(3-(difluoromethoxy)phenyl)-N-(3-hydroxybutan-2-yl)-1-isopropyl-1H-pyrazolo[4,3-b]pyridine-6-carboxamide]
2730 | CC(O)C(C)NC(=O)c1cnc2c(-c3cccc(OC(F)F)c3)nn(C(C)C)c2c1 (single isomer, unassigned) [Example 45d, 3-(3-(difluoromethoxy)phenyl)-N-(3-hydroxybutan-2-yl)-1-isopropyl-1H-pyrazolo[4,3-b]pyridine-6-carboxamide]
15 | CC(C)n1nc(-c2cccc(OC(F)F)c2)c2ncc(C(=O)NC(C)(C)C(C)O)cc21 (single isomer, unassigned) [Example 46a, 3-(3-(difluoromethoxy)phenyl)-N-(3-hydroxy-2-methylbutan-2-yl)-1-isopropyl-1H-pyrazolo[4,3-b]pyridine-6-carboxamide]
13 | CC(C)n1nc(-c2cccc(OC(F)F)c2)c2ncc(C(=O)NC(C)(C)C(C)O)cc21 (single isomer, unassigned) [Example 46b, 3-(3-(difluoromethoxy)phenyl)-N-(3-hydroxy-2-methylbutan-2-yl)-1-isopropyl-1H-pyrazolo[4,3-b]pyridine-6-carboxamide]
1410 | CC(C)n1nc(-c2cccc(OC(F)F)c2)c2ncc(C(=O)NC3(C(C)(C)O)CCOC3)cc21 (single isomer, unassigned) [Example 47a, 3-(3-(difluoromethoxy)phenyl)-N-(3-(2-hydroxypropan-2-yl)tetrahydrofuran-3-yl)-1-isopropyl-1H-pyrazolo[4,3-b]pyridine-6-carboxamide]
50 | CC(C)n1nc(-c2cccc(OC(F)F)c2)c2ncc(C(=O)NC3(C(C)(C)O)CCOC3)cc21 (single isomer, unassigned) [Example 47b, 3-(3-(difluoromethoxy)phenyl)-N-(3-(2-hydroxypropan-2-yl)tetrahydrofuran-3-yl)-1-isopropyl-1H-pyrazolo[4,3-b]pyridine-6-carboxamide]
6.3 | CC(C)n1nc(-c2cccc(OC(F)F)c2)c2ncc(C(=O)NC3(C)CCOC3)cc21 (single isomer, unassigned) [Example 48a, 3-(3-(difluoromethoxy)phenyl)-1-isopropyl-N-(3-methyltetrahydrofuran-3-yl)-1H-pyrazolo[4,3-b]pyridine-6-carboxamide]
16 | CC(C)n1nc(-c2cccc(OC(F)F)c2)c2ncc(C(=O)NC3(C)CCOC3)cc21 (single isomer, unassigned) [Example 48b, 3-(3-(difluoromethoxy)phenyl)-1-isopropyl-N-(3-methyltetrahydrofuran-3-yl)-1H-pyrazolo[4,3-b]pyridine-6-carboxamide]
132 | CC(C)n1nc(-c2cccc(OC(F)F)c2)c2ncc(C(=O)NC3(C(C)O)CCOC3)cc21 (single isomer, unassigned) [Example 50a, 3-(3-(difluoromethoxy)phenyl)-N-(3-(1-hydroxyethyl)tetrahydrofuran-3-yl)-1-isopropyl-1H-pyrazolo[4,3-b]pyridine-6-carboxamide]
31 | CC(C)n1nc(-c2cccc(OC(F)F)c2)c2ncc(C(=O)NC3(C(C)O)CCOC3)cc21 (single isomer, unassigned) [Example 50b, 3-(3-(difluoromethoxy)phenyl)-N-(3-(1-hydroxyethyl)tetrahydrofuran-3-yl)-1-isopropyl-1H-pyrazolo[4,3-b]pyridine-6-carboxamide]
108 | CC(C)n1nc(-c2cccc(OC(F)F)c2)c2ncc(C(=O)NC3(C(C)O)CCOC3)cc21 (single isomer, unassigned) [Example 50c, 3-(3-(difluoromethoxy)phenyl)-N-(3-(1-hydroxyethyl)tetrahydrofuran-3-yl)-1-isopropyl-1H-pyrazolo[4,3-b]pyridine-6-carboxamide]
16 | CC1(NC(=O)c2cnc3c(-c4cccc(OC(F)F)c4)nn([C@@H]4COC[C@H]4O)c3c2)CS(=O)(=O)C1 (single isomer, unassigned) [Example 53a, 3-(3-(difluoromethoxy)phenyl)-1-((trans)-4-hydroxytetrahydrofuran-3-yl)-N-(3-methyl-1,1-dioxidothietan-3-yl)-1H-pyrazolo[4,3-b]pyridine-6-carboxamide]
132 | CC1(NC(=O)c2cnc3c(-c4cccc(OC(F)F)c4)nn([C@@H]4COC[C@H]4O)c3c2)CS(=O)(=O)C1 (single isomer, unassigned) [Example 53b, 3-(3-(difluoromethoxy)phenyl)-1-((trans)-4-hydroxytetrahydrofuran-3-yl)-N-(3-methyl-1,1-dioxidothietan-3-yl)-1H-pyrazolo[4,3-b]pyridine-6-carboxamide]
600 | C[C@]1(NC(=O)c2cnc3c(-c4cccc(OC(F)F)c4)nn(C4CCOC4)c3c2)CCS(=O)(=O)C1 (single isomer, unassigned) [Example 60a]
37 | C[C@]1(NC(=O)c2cnc3c(-c4cccc(OC(F)F)c4)nn(C4CCOC4)c3c2)CCS(=O)(=O)C1 (single isomer, unassigned) [Example 60b]
59 | C[C@]1(NC(=O)c2cnc3c(-c4cccc(OC(F)F)c4)nn(C4CCCOC4)c3c2)CCS(=O)(=O)C1 (single isomer, unassigned) [Example 62a]
116 | C[C@]1(NC(=O)c2cnc3c(-c4cccc(OC(F)F)c4)nn(C4CCCOC4)c3c2)CCS(=O)(=O)C1 (single isomer, unassigned) [Example 62b]
71 | CCC(C)n1nc(-c2cccc(OC(F)F)c2)c2ncc(C(=O)NC3(C)CS(=O)(=O)C3)cc21 (single isomer, unassigned) [Example 66a, 3-[3-(difluoromethoxy)phenyl]-N-(3-methyl-1,1-dioxo-thietan-3-yl)-1-sec-butyl-pyrazolo[4,3-b]pyridine-6-carboxamide]
1.5 | CCC(C)n1nc(-c2cccc(OC(F)F)c2)c2ncc(C(=O)NC3(C)CS(=O)(=O)C3)cc21 (single isomer, unassigned) [Example 66b, 3-[3-(difluoromethoxy)phenyl]-N-(3-methyl-1,1-dioxo-thietan-3-yl)-1-sec-butyl-pyrazolo[4,3-b]pyridine-6-carboxamide]
73 | CC1(NC(=O)c2cnc3c(-c4cccc(OC(F)F)c4)nn(CC(O)C(F)(F)F)c3c2)CS(=O)(=O)C1 (single isomer, unassigned) [Example 67a, 3-(3-(difluoromethoxy)phenyl)-N-(3-methyl-1,1-dioxidothietan-3-yl)-1-(3,3,3-trifluoro-2-hydroxypropyl)-1H-pyrazolo[4,3-b]pyridine-6-carboxamide]
